2 molecules from ChEMBL document CHEMBL1147061, “Antidepressant binding site in a bacterial homologue of neurotransmitter transporters” (Nature, 2007) can be followed below.

Molecules are shown by their SMILES.

In experiment [1] the test system is Aquifex aeolicus. The experiment is described as follows: Activity at Aquifex aeolicus sodium-coupled leucine transporter assessed as inhibition of L-[3H]Ala transport at 50 uM.
Experiment [2] has as its system Aquifex aeolicus. The experiment is described as follows: Activity at Aquifex aeolicus sodium-coupled leucine transporter assessed as inhibition of L-[3H]Ala transport at 1 uM.
The test system of experiment [3] is Aquifex aeolicus. The experiment is described as follows: Activity at Aquifex aeolicus sodium-coupled leucine transporter assessed as inhibition of L-[3H]Ala transport at 20 uM.
Experiment [4] is described as follows: Inhibition of L-[3H]Ala uptake at Aquifex aeolicus sodium-coupled leucine transporter.
The nature of experiment [5]: Inhibition of L-[3H]Leu uptake at Aquifex aeolicus sodium-coupled leucine transporter.
Experiment [6] has as its system Aquifex aeolicus. The experiment is described as follows: (§1) Binding affinity to Aquifex aeolicus sodium-coupled leucine transporter.
The nature of experiment [7]: as §1.

In general, Km refers to the concentration of substrate that gives half-maximal velocity. The Vmax is the rate approached at saturating substrate. Usually IC50 stands for the midpoint of a concentration-inhibition curve. Regarding `CN(C)CCCN1c2ccccc2CCc2ccc(Cl)cc21` [CLOMIPRAMINE], the Km is 0.48 µM in the experiment with Aquifex aeolicus [1], 0.42 µM with Aquifex aeolicus [2] and 0.47 µM in the experiment on Aquifex aeolicus [3]. For the same molecule, the Vmax with Aquifex aeolicus [1] amounted to 770 pmol/min/mg; in the experiment with Aquifex aeolicus [2] it was 1480 pmol/min/mg; with Aquifex aeolicus [3] it was 970 pmol/min/mg. Moreover, the IC50 in experiment [4] amounted to 4.7 µM; in experiment [5], 250 µM.
The term kcat denotes the maximal rate divided by the concentration of active sites. For orientation: Kd means a measure of binding affinity in units of concentration. For `CC(C)C[C@H](N)C(=O)O` [LEUCINE], in the experiment on Aquifex aeolicus [6], the kcat stood at 0.000333 s⁻¹. In experiment [7], the Kd is 0.02 µM.
